In brackets after ≈: the same amount, converted by molar mass. Several values for one entry are separate records, joined by “and”; a condition that tells them apart may be missing. Equal entries are not always repeated.
Assays:
Assay type in all cases: functional
[1] = system: Candida; test: The compound was tested for percent resistance against all Candida. species (40 clinical isolates) at 256 ug/mL (pH=7.2), activity is expressed as R%.
[2] = system: Candida albicans; test: 50% inhibitory activity against Candida albicans (40 clinical isolates) determined at pH-7.2; settings: Candida albicans; read-out: MIC50
[3] = system: Candida albicans; test: Inhibitory activity against the Candida albicans (40 clinical isolates), determined at pH-5.8
[4] = system: Candida; test: Inhibitory activity against Candida. species. (40 clinical isolates), determined at pH-5.8
[5] = system: Candida albicans; test: Inhibitory activity against Candida albicans (40 clinical isolates), determined at pH-5.8
[6] = system: Candida albicans; test: 50% inhibitory activity against Candida albicans (40 clinical isolates) determined at pH-5.8
[7] = system: Candida albicans; test: Percent resistance against Candida albicans (40 clinical isolates) at 256 micro g/mL (pH=5.8), activity is expressed as R%.
[8] = system: Candida; test: The compound was tested for percent resistance against all Candida. species (40 clinical isolates) at 256 ug/mL (pH=5.8), activity is expressed as R%.
[9] = system: Candida; test: Inhibitory activity against the Candida. species. (40 clinical isolates) was determined at pH-7.2
[10] = system: Candida; test: 50% inhibitory activity against the Candida. species (40 clinical isolates) was determined at pH-7.2
[11] = system: Candida albicans; test: Resistance against Candida. albicans (40 clinical isolates) at 256 ug/mL (pH=7.2), activity is expressed as R%.
[12] = system: Candida; test: Inhibitory activity against Candida. species (40 clinical isolates), determined at pH-5.8
[13] = system: Candida; test: 90% inhibitory activity against the Candida. species (40 clinical isolates) was determined at pH-7.2
[14] = system: Candida albicans; test: Inhibitory activity against Candida albicans (40 clinical isolates), determined at pH-7.2
[15] = system: Candida albicans; test: Inhibitory activity against the Candida albicans (40 clinical isolates), determined at pH-7.2
[16] = system: Candida; test: Resistance against all Candida. species (40 clinical isolates) at 256 micro g/mL (pH=5.8). Activity is expressed as R%.
[17] = system: Candida; test: Percent resistance against all Candida. species (40 clinical isolates) at 256 micro g/mL (pH=7.2), activity is expressed as R%.
[18] = system: Candida; test: Inhibitory activity against Candida. species. (40 clinical isolates), determined at pH-7.2
[19] = system: Candida; test: 90% inhibitory activity against Candida. species (40 clinical isolates) determined at pH-7.2
[20] = system: Oryctolagus cuniculus; test: Topical comparison with bifonazole in white male rabbits by treatment twice daily on 15 consecutive days starting 48 hr after inoculation.
[21] = system: Oryctolagus cuniculus; test: Topical comparison with bifonazole in white male rabbits at 1% concentration of compound
[22] = system: Candida; test: The compound was tested for percent resistance against all Candida. species (40 clinical isolates) at 256 micro g/mL (pH=5.8), activity is expressed as R%.
[23] = system: Candida albicans; test: The compound was tested for percent resistance against Candida. albicans (40 clinical isolates) at 256 micro g/mL (pH=7.2), activity is expressed as R%.

Structure (SMILES) | MIC50 [2] | MIC90 [3] | MIC [4] | MIC [5] | MIC50 [6] | R [7] | MIC50 [10] | R [11] | MIC50 [12] | MIC90 [12] | MIC90 [13] | MIC [14] | MIC90 [15] | R [17] | MIC [18] | further results
c1ccc(-c2c[nH]cc2C(c2ccccc2)n2ccnc2)cc1 (stereo not given) | 32 µg/mL (≈ 107 µM) | 128 µg/mL (≈ 428 µM) | 88 µg/mL (≈ 294 µM) | 53.9 µg/mL (≈ 180 µM) | 32 µg/mL (≈ 107 µM) | 0% | > 256 µg/mL | 2.7% | 128 µg/mL (≈ 428 µM) | 128 µg/mL (≈ 428 µM) | > 256 µg/mL | > 35.4 µg/mL | 64 µg/mL (≈ 214 µM) | – | – | R [1]: 75%; R [8]: 0%; MIC [9]: > 396 µg/mL
Clc1ccc(-c2c[nH]cc2C(c2ccccc2)n2ccnc2)cc1 (stereo not given) | 2 µg/mL (≈ 5.99 µM) | 32 µg/mL (≈ 95.9 µM) | 44.4 µg/mL (≈ 133 µM) | 12.8 µg/mL (≈ 38.3 µM) | 16 µg/mL (≈ 47.9 µM) | 0% | 32 µg/mL (≈ 95.9 µM) | 0% | 32 µg/mL (≈ 95.9 µM) | 32 µg/mL (≈ 95.9 µM) | – | 6.4 µg/mL (≈ 19.2 µM) | 16 µg/mL (≈ 47.9 µM) | 0% | 46.5 µg/mL (≈ 139 µM) | R [16]: 0%; MIC90 [19]: 128 µg/mL (≈ 383 µM); No. of animals [20]: 33%; Percentage of animals [21]: 50% and 83%
CC(=O)N1CCN(c2ccc(OC[C@H]3CO[C@](Cn4ccnc4)(c4ccc(Cl)cc4Cl)O3)cc2)CC1 [KETOCONAZOLE] | 2 µg/mL (≈ 3.76 µM) | 32 µg/mL (≈ 60.2 µM) | 16.9 µg/mL (≈ 31.8 µM) | 8.6 µg/mL (≈ 16.2 µM) | 0.5 µg/mL (≈ 0.941 µM) | 0% | 4 µg/mL (≈ 7.53 µM) | – | 4 µg/mL (≈ 7.53 µM) | 32 µg/mL (≈ 60.2 µM) | 32 µg/mL (≈ 60.2 µM) | 8.3 µg/mL (≈ 15.6 µM) | 32 µg/mL (≈ 60.2 µM) | 0% | 8.1 µg/mL (≈ 15.2 µM) | Fungicidal [22]: 0%; R [23]: 0%

From ChEMBL document CHEMBL1128323, “Antifungal agents. 9. 3-Aryl-4-[alpha-(1H-imidazol-1-yl)arylmethyl]pyrroles: a new class of potent anti-Candida agents” (1995)
